Assay results: patent publication US7932272B2, “Antifungal agent containing heterocyclic compound” (Eisai R&D Management Co., Ltd., priority 2003, dated 2011)

System: A. fumigatus Tsukuba strain
Test: Experimental respiratory aspergillus infection model in mice
Assay type: in vivo, female DBA/2N mice
Conditions: 5-fluorouracil-treated mice, A. fumigatus nasal infection, 20 or 40 mg/kg peroral 3 times per day for 3 days, observed until 14 days after infection
Procedure: In order to increase susceptibility of the mice to infection, 200 mg/kg of 5-fluorouracil was administered subcutaneously 6 days prior to infection.
A. fumigatus Tsukuba strain was used.
A spore suspension of the infection strain was used to coat a potato dextrose agar medium (PDA), a standing culture was carried out for 4 to 7 days at 35° C., spore was then suspended in a sterilized physiological saline containing 0.05% Tween 80. By counting the pore count on a cytometry plate, the suspension was diluted to 6×10^5 cells/ml with sterilized physiological saline containing 0.05% Tween 80 to serve as fungal inoculum.
Under ketalar anesthesia, 50 μl of fungal inoculum was used to inoculate 8 to 9 week-old female DBA/2N mice in the nose (3×10^4 cells/mouse).
From 1 hour after fungal inoculation, 0.2 ml of agent solution (dissolved or suspended in sterilized physiological saline containing 6.5% DMSO and 3.5% Tween 80), was administered into the stomach using a peroral probe 3 times per day for 3 days. The agent dosage was from 20 or 40 mg/kg, and the number of animals in one group was 5 animals.
The protective effect was determined by observing life/death until 14 days after infection and calculating the mean survival days.

Structure (SMILES)	Mean Survival Days [days]
Nc1ccc(C(=O)NCc2ccc(OCc3ccccc3)s2)c(N)n1 [Example A-56, 2,6-Diamino-N-(5-benzyloxy-thiophen-2-ylmethyl)-nicotinamide]	10.8
Nc1ccc(C(=O)NCc2ccc(OCc3ccccc3F)cc2)c(N)n1 [Example A-11, 2,6-Diamino-N-(4-(2-fluoro-benzyloxy)-benzyl)-nicotinamide]	10.4
